Data reported in patent publication EP4635969A1, “NOVEL GLUCOCORTICOID, METHOD FOR PREPARING SAME, AND USE THEREOF” (Tianjin Pharmaceutical Biotechnology Co., Ltd., priority 2022, dated 2024).

Tests used:
[1] = Stability in animal lung tissue homogenate, skin tissue homogenate and aqueous humor; type: in vitro ADME
[2] = system: inflammatory cytokines (TNF-α); assay: Anti-uveitis pharmacodynamic experiment (LPS model): inflammatory cytokines in aqueous humor (ELISA); type: in vivo, male SD rats; settings: values not given
Procedure: Pharmacological Example 5. Pharmacodynamic Experiment on Anti-Uveitis
Test samples: Compounds 23 and 26 were prepared as 5 mg/5 mL ophthalmic suspensions with reference to the formulation of Fluorometholone Eye Drops, and stored at room temperature protected from light until use.
Positive control drug: Fluorometholone Eye Drops (specification: 5 mL/5 mg; Santen Pharmaceutical (CHINA) Co., Ltd.; Lot No. : J20180068) was used as the positive control drug and stored at room temperature protected from light until use.
Fifty male SD rats underwent a one-week adaptive feeding period. The animals were randomly divided into 5 groups: Group 1 served as the blank control group, and Groups 2 to 5 were the model group, fluorometholone group, compound 23 group, and compound 26 group, respectively. Groups 2 to 5 were used to establish rat uveitis models by single subcutaneous injection of 1 mg/kg LPS (Salmonella; Sigma; Lot No. 0000164114) into the plantar tissue of the hindpaw. Salmonella endotoxin was dissolved in normal saline to prepare an injection solution at a concentration of 2 mg/mL, which was injected subcutaneously at 1 mg/kg into the plantar tissue of one paw of the rats. Group 1 was injected with an equal volume of normal saline.
After modeling, 40 µL of normal saline was administered to the eyes (bilateral) of the rats in the blank control group and model group, and 40 µL of the corresponding drugs were administered to the eyes (bilateral) of the […] in the compound 23 group, compound 26 group, and positive drug fluorometholone group, 3 times a day for 2 days. Table 8. Animal grouping and drug administration dosages
Thirty hours after modeling, aqueous humor was collected from both eyes of rats, and partial eyeball tissues of rats were collected. The level of the inflammatory cytokines (TNF-α) was detected using a rat ELISA assay kit.
Statistical analysis was performed using SPSS software. Measurement data were expressed as mean ± standard deviation. One-way ANOVA was used for intergroup comparisons. For data with homogeneous variance, LSD test was used; for data with heterogeneous variance, Dunnett-t test was used. A value of P < 0.05 was considered statistically significant.

[3] = system: dry eye syndrome model New Zealand rabbits; assay: Dry eye syndrome experiment (benzalkonium chloride model): tear secretion test with phenol red cotton threads; type: in vivo, male New Zealand White rabbits; settings: compared with the model group
Procedure: (§1) Positive control drug: Fluorometholone Eye Drops (specification: 5 mL/5 mg; Santen Pharmaceutical (CHINA) Co., Ltd.; Lot No.: 1FM6625) was used as the positive control drug and stored at room temperature protected from light until use.
Thirty male New Zealand White rabbits (conventional grade) were prepared. Six rabbits were randomly selected as the blank control group, and the remaining animals were administered 0.1% benzalkonium chloride to the left eye twice daily (morning and evening) , 10 µL/animal each time. On day 6 of modeling, tear secretion was measured using phenol red cotton threads to determine whether the model was successfully established. […] During the administration, all animals except the blank control group were administered 10 µL of 0.1% benzalkonium chloride to the left eye once daily to maintain dry eye symptoms..
• Test time: D3, D7, D15; • Test animals: All animals were tested before grouping; all enrolled surviving animals were tested after administration; • Test method: Tear secretion was measured using phenol red cotton threads. The tear secretion test paper was folded and placed at the middle and outer 1/3 of the rabbit palpebral conjunctival sac for 1 min. The test paper was then removed, observed, and recorded for its wetting length. The test was repeated 3 times, and the values were averaged.
(§2) The normality and homogeneity of variance were tested by Levene's test. If there was no statistical significance (P > 0.05), one-way analysis of variance (ANOVA) was used for statistical analysis. If ANOVA was statistically significant (P ≤ 0.05), LSD test (parametric method) was used for comparative analysis. If the variance was heterogeneous (P ≤ 0.05), Kruskal-Wallis test was used. If the Kruskal-Wallis test was statistically significant (P ≤ 0.05), Dunnett's test (nonparametric method) was used for comparative analysis.

[4] = system: dry eye syndrome model New Zealand rabbits; assay: Dry eye syndrome experiment (benzalkonium chloride model): corneal fluorescein sodium staining; type: in vivo, male New Zealand White rabbits; settings: compared with the model group
Procedure: Pharmacological Example 6: Therapeutic Pharmacodynamic Experiment on Dry Eye Syndrome in New Zealand Rabbits
as §1
Thirty male New Zealand White rabbits (conventional grade) were prepared. Six rabbits were randomly selected as the blank control group, and the remaining animals were administered 0.1% benzalkonium chloride to the left eye twice daily (morning and evening) , 10 µL/animal each time. […] During the administration, all animals except the blank control group were administered 10 µL of 0.1% benzalkonium chloride to the left eye once daily to maintain dry eye symptoms..
• Test time: D3, D7, D15; • Test animals: All animals were tested before grouping; all enrolled surviving animals were tested after administration; • Test method: 2 µL of 1% Fluorescein sodium was dropped into the conjunctival sac. After 5 s, the excess fluorescein was rinsed with 0.9% normal saline. The conjunctival staining was observed under a slit lamp with cobalt blue diffused light.
as §2

[5] = system: inflammatory bowel disease model rats; assay: Inflammatory bowel disease experiment (TNBS model): macroscopic injury score of the colon; type: in vivo; settings: compared with the model group
Procedure: Pharmacological Example 7: Pharmacodynamic Experiment on Inflammatory Bowel Disease in Rats
Test samples: The jet-milled compounds 23 and 34 were accurately weighed and prepared as 2 mg/mL clear solutions using anhydrous ethanol, respectively. The solutions were then diluted to 0.2 mg/mL with double-distilled water as the test samples, and stored at room temperature protected from light until use.
Animals in Groups 2 to 5 were subjected to trinitrobenzene sulfonic acid (TNBS) modeling as follows: A 5% TNBS aqueous solution was adjusted to 20 mg/mL TNBS (50% ethanol solution) with alcohol and water. After fasting for 24 h, the rats were anesthetized using an inhalation anesthesia machine. A silicone hose was inserted approximately 8 cm into the anus, and then TNBS was injected at a dose of 50 mg/kg. After injection, the rats were placed vertically for 1 min to prevent the backflow of TNBS solution. Then, the rats were placed into their cages for observation until the animals recovered.
Drug administration started one day before modeling, with one dose administered 1 hour before modeling and then once a day for 5 consecutive days. […] Table 14. Animal grouping and drug administration dosages
The experiment ended on day 5 after TNBS modeling. After isoflurane anesthesia, blood was collected from the hearts, and the rats were euthanized. The abdominal cavity was rapidly opened, and the macroscopic injury scoring of the colon in rats was performed based on the adhesion, obstruction, thickening of the colonic wall, colonic congestion, and necrosis in the colon area. After clearing the colonic contents, the colonic samples were longitudinally incised. The proximal 2/3 of the colon was excised, prepared into Swiss rolls, and stored in 4% neutral buffered formalin for histopathological analysis. Tissues were trimmed, dehydrated, paraffin-embedded, and sectioned (approximately 5 µm thickness), stained with hematoxylin-eosin (HE), and observed for pathological changes. Pathologists performed blind scoring of colonic lesions.
Quantitative indices were first subjected to Bartlett's test for homogeneity of variance. When the variance was homogeneous (P > 0.05), one-way analysis of variance (ANOVA) was used for a statistical test; if there was statistical significance (P ≤ 0.05), Dunnett's t-test (Dunnett method) was used to compare intergroup differences; if there was no statistical significance (P > 0.05), the statistical analysis was concluded. When the variance was heterogeneous (P ≤ 0.05), Kruskal-Wallis H rank-sum test (K-W method) was used for statistical analysis: if there was statistical significance (P ≤ 0.05), Mann-Whitney U test (M-W method) was further performed to compare intergroup differences; if there was no statistical significance (P > 0.05), the statistical analysis was concluded.

[6] = system: intraocular pressure of guinea pigs; assay: Adverse reactions of continuous ocular administration: intraocular pressure; type: in vivo
Procedure: Pharmacological Example 9: Experiment on Adverse Reactions of Continuous Ocular Administration in Guinea Pigs
Test samples: Compounds 17 and 23 were prepared as 5 mg/5 mL ophthalmic suspensions with reference to the formulation of Fluorometholone Eye Drops, and stored at room temperature protected from light until use.
Positive control drug: Fluorometholone Eye Drops (specification: 5 mL/5 mg; Santen Pharmaceutical (CHINA) Co., Ltd.; Lot No.: 1FM6545), Loteprednol Etabonate Eye Drops (specification 0.5% (5 mg/mL); Shandong Bausch & Lomb Freda Pharmaceutical Co., Ltd; Lot No. 386521), stored at room temperature protected from light until use.
Animals: 50 guinea pigs, conventional grade, with an equal number of males and females, weighing 300-350 g..
Animal grouping: After 5 days of adaptive feeding, the guinea pigs were randomly divided into 5 groups based on body weight. Group 1 was the blank control group, and 50 µL of normal saline was dropped into the eyes (bilateral) of the guinea pigs. Groups 2 to 5 were the fluorometholone group, loteprednol group, compound 17 group, and compound 23 group, respectively, and the corresponding drugs were dropped into the eyes (bilateral) of the guinea pigs. Table 19. Animal grouping and drug administration dosages for the experiment on adverse reactions of continuous ocular administration in guinea pigs
Intraocular pressure measurement time: The intraocular pressure of animals in each group was measured before administration and on days 7, 14, 21, and 28 post-administration.

| SMILES | stability in animal lung tissue homogenate, skin tissue homogenate, and aqueous humor [1] | inflammatory cytokines in aqueous humor [2] | tear secretion [3] | inflammatory response on the ocular surface / ocular symptoms [4] | inflammatory response on the intestinal surface / intestinal symptoms [5] | intraocular pressure after continuous ocular administration [6] |
| --- | --- | --- | --- | --- | --- | --- |
| C[C@]12C=CC(=O)C=C1[C@@H](F)C[C@H]1[C@@H]3C[C@H]4OC(c5ccc(CSC6CCOC6=O)cc5)O[C@@]4(C(=O)OCC#N)[C@@]3(C)C[C@H](O)[C@@]12F (stereo partly drawn) [Compound 37, Cyanomethyl (2S,6aS,6bR,7S,8aS,8bS,11aR,12aS,12bS)-2,6b-difluoro-7-hydroxy-6a,8a-dimethyl-4-oxo-10-(4-( ((2-oxotetrahydrofuran-3-yl)thio)methyl)phenyl)-1,2,4,6a,6b,7,8,8a,11a,12,12a,12b-dodecahydro-8bH-naphtho[2',1':4,5]indeno[1,2-d][1,3]dioxole-8b-carboxylate] | relatively stable | suppressed inflammatory cytokines in aqueous humor | significantly increased the tear secretion | significantly alleviated the ocular symptoms in dry eye syndrome model New Zealand rabbits | significantly alleviated the intestinal symptoms in inflammatory bowel disease model rats | no abnormal intraocular pressure observed |
| C[C@]12C=CC(=O)C=C1[C@@H](F)C[C@H]1[C@@H]3C[C@H]4OC(c5ccc(CSC6CCOC6=O)cc5)O[C@@]4(C(=O)SCC#N)[C@@]3(C)C[C@H](O)[C@@]12F (stereo partly drawn) [Compound 35, S-(Cyanomethyl) (2S,6aS,6bR,7S,8aS,8bS,11aR,12aS,12bS)-2,6b-difluoro-7-hydroxy-6a,8a-dimethyl-4-oxo-10-(4-( ((2-oxotetrahydrofuran-3-yl)thio)methyl)phenyl)-1,2,4,6a,6b,7,8,8a,11a,12,12a,12b-dodecahydro-8bH-naphtho[2',1':4,5]indeno[1,2-d][1,3]dioxole-8b-carbothioate] | relatively stable | suppressed inflammatory cytokines in aqueous humor | significantly increased the tear secretion | significantly alleviated the ocular symptoms in dry eye syndrome model New Zealand rabbits | significantly alleviated the intestinal symptoms in inflammatory bowel disease model rats | no abnormal intraocular pressure observed |
| C[C@]12C=CC(=O)C=C1CC[C@H]1[C@@H]3C[C@H]4OC(c5ccc(CSC6COC(=O)C6)cc5)O[C@@]4(C(=O)CO)[C@@]3(C)C[C@H](O)[C@@]12Cl (stereo partly drawn) [Compound 26, (6aS,6bR,7S,8aS,8bS,11aR,12aS,12bS)-6b-Chloro-7-hydroxy-8b-(2-hydroxyacetyl)-6a,8a-dimethyl-10-(4-(((5-oxotetrahydrofuran-3-yl)thio)methyl)phenyl)-1,2,6a,6b,7,8,8a,8b,11a,12,12a,12b-do decahydro-4H-naphtho[2',1':4,5]indeno[1,2-d][1,3]dioxol-4-one] | relatively stable | suppressed inflammatory cytokines in aqueous humor | significantly increased the tear secretion | significantly alleviated the ocular symptoms in dry eye syndrome model New Zealand rabbits | significantly alleviated the intestinal symptoms in inflammatory bowel disease model rats | no abnormal intraocular pressure observed |
| C[C@]12C=CC(=O)C=C1CC[C@H]1[C@@H]3C[C@H]4OC(c5ccc(COC6CCOC6=O)cc5)O[C@@]4(C(=O)CO)[C@@]3(C)C[C@H](O)[C@@]12Cl (stereo partly drawn) [Compound 22, (6aS,6bR,7S,8aS,8bS,11aR,12aS,12bS)-6b-Chloro-7-hydroxy-8b-(2-hydroxyacetyl)-6a,8a-dimethyl-10-(4-(((2-oxotetrahydrofuran-3-yl)oxy)methyl)phenyl)-1,2,6a,6b,7,8,8a,8b,11a,12,12a,12b-do decahydro-4H-naphtho[2',1':4,5]indeno[1,2-d][1,3]dioxol-4-one] | relatively stable | suppressed inflammatory cytokines in aqueous humor | significantly increased the tear secretion | significantly alleviated the ocular symptoms in dry eye syndrome model New Zealand rabbits | significantly alleviated the intestinal symptoms in inflammatory bowel disease model rats | no abnormal intraocular pressure observed |
| C[C@]12C=CC(=O)C=C1CC[C@H]1[C@@H]3C[C@H]4OC(c5ccc(CNC6COC(=O)C6)cc5)O[C@@]4(C(=O)CO)[C@@]3(C)C[C@H](O)[C@@]12F (stereo partly drawn) [Compound 21, (6aS,6bR,7S,8aS,8bS,11aR,12aS,12bS)-6b-Fluoro-7-hydroxy-8b-(2-hydroxyacetyl)-6a,8a-dimethyl-10-(4-(((5-oxotetrahydrofuran-3-yl)amino)methyl)phenyl)-1,2,6a,6b,7,8,8a,8b,11a,12,12a,12b-dodecahydro-4H-naphtho[2',1':4,5]indeno[1,2-d][1,3]dioxol-4-one] | relatively stable | suppressed inflammatory cytokines in aqueous humor | significantly increased the tear secretion | significantly alleviated the ocular symptoms in dry eye syndrome model New Zealand rabbits | significantly alleviated the intestinal symptoms in inflammatory bowel disease model rats | no abnormal intraocular pressure observed |
